Laboratory results taken from patent US20240269139A1, “COMPOUNDS FOR TARGETED PROTEIN DEGRADATION OF KINASES” (DANA-FARBER CANCER INSTITUTE, INC., priority 2020, published 2024).
Several values for one entry are separate records, joined by “and”; a condition that tells them apart may be missing. Equal entries are not always repeated. Where two headings read alike, the source gives them in different places.

What was measured:
Type in all cases: cell-based
[1] = molecular target: protein kinases (human kinome) (Homo sapiens, UniProt P53671); conditions: for logFC LIMK2: LIMK2 (P53671), down; for logFC of LIMK2: LIMK2 P53671
Chain of protein kinases (human kinome) (Homo sapiens, UniProt P53671) (P53671 whole entry): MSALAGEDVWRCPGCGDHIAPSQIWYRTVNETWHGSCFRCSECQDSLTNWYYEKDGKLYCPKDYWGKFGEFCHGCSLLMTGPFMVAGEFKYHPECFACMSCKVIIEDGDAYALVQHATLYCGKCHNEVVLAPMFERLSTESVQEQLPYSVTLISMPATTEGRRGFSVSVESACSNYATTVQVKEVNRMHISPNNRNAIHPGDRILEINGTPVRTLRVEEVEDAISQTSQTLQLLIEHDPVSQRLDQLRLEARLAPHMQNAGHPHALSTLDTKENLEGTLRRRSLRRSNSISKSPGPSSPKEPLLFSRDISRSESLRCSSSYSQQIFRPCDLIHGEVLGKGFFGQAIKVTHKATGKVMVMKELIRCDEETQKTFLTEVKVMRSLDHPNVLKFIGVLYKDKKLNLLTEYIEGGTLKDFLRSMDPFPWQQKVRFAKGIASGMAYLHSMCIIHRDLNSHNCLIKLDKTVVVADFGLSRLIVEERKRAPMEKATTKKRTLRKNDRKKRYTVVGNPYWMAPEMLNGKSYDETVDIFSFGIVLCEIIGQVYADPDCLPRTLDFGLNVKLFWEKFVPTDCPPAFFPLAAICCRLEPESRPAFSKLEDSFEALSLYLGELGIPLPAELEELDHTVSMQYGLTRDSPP

[2] = molecular target: protein kinases (human kinome) (Homo sapiens, UniProt P11802)
Chain of protein kinases (human kinome) (Homo sapiens, UniProt P11802) (P11802 whole entry): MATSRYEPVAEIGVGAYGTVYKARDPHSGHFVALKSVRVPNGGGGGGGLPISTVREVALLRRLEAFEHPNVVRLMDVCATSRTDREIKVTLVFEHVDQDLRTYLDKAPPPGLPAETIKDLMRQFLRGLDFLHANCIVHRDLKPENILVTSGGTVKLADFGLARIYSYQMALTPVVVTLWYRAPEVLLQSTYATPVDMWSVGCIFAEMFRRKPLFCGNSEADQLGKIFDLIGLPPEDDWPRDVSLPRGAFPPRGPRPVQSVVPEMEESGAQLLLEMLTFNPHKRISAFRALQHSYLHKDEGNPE

[3] = molecular target: protein kinases (human kinome) (Homo sapiens, UniProt P16591); conditions: for logFC of FER (P16591-1): down
Chain of protein kinases (human kinome) (Homo sapiens, UniProt P16591) (P16591 whole entry): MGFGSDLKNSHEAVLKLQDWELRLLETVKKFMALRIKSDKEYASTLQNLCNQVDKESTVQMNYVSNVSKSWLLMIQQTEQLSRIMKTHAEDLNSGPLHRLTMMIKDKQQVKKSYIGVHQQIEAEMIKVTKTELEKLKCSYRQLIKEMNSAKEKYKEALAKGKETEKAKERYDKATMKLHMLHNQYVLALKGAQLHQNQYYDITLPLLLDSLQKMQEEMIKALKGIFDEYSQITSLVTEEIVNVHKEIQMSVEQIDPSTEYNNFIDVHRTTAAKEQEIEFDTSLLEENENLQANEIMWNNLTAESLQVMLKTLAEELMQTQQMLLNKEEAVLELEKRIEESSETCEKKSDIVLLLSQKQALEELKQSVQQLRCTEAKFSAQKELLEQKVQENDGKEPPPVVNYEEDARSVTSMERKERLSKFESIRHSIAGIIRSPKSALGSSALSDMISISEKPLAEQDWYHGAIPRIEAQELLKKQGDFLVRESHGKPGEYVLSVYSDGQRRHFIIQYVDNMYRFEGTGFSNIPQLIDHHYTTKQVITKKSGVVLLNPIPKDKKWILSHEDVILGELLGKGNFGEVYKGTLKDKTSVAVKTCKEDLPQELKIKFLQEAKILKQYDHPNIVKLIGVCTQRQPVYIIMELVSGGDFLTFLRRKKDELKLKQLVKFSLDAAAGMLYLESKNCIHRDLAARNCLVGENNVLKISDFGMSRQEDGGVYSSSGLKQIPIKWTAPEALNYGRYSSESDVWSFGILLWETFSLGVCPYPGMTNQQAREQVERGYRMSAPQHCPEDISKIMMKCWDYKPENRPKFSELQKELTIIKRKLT

[4] = system: protein kinases (human kinome); conditions: for logFC of SRC: Accession P12931-2; for logFC of FER: FER P16591-3; for logFC LCK: accession P06239-3; for logFC PTK2B: accession Q14289-2
[5] = Experiment wp107, direction down
[6] = Experiment wp117, direction down
[7] = experiment wp045, direction of change down
[8] = experiment wp103, direction of change down
[9] = experiment wp107, direction of change down
[10] = experiment wp117, direction of change down

With `Cc1ccc(NC(=O)c2cccc(C(F)(F)F)c2)cc1N1Cc2cnc(Nc3ccc(N4CCN(Cc5cn(CCCCCOc6cccc7c6C(=O)N(C6CCC(=O)NC6=O)C7=O)nn5)CC4)nc3)nc2N(C)C1=O` (stereo not shown) [DB0646, N-(3-(7-((6-(4-((1-(5-((2-(2,6-Dioxopiperidin-3-yl)-1,3-dioxoisoindolin-4-yl)oxy)pentyl)-1H-1,2,3-triazol-4-yl)methyl)piperazin-1-v)pyridin-3-yl)amino)-1-methyl-2-oxo-1,4-dihydropyrimido[4,5-d]pyrimidin-3(2H)-yl)-4-methylphenyl)-3-(trifluoromethyl)benzamide] the “logFC LIMK2” value ([1]; experiment wp045) was −1.648, the “logFC LIMK2” value ([1]; experiment wp103) was −1.569 and the “logFC LIMK2” value ([1]; experiment wp107) was −1.738. For the same molecule, the “logFC LIMK2” value ([1]; experiment wp117) was −1.565, the “logFC LIMK2” value ([1]; experiment wp152) was −1.565 and the “logFC LIMK2” value ([1]; experiment wp172) was −1.095. The “logFC of LIMK2” value ([1]; experiment wp045) was −1.648, the “logFC of LIMK2” value ([1]; experiment wp103) was −1.569 and the “logFC of LIMK2” value ([1]; experiment wp107) was −1.738. For the same molecule, the “logFC of LIMK2” value ([1]; experiment wp117) was −1.565, the “logFC of LIMK2” value ([1]; experiment wp152) was −1.565 and the “logFC of LIMK2” value ([1]; experiment wp172) was −1.095. The “logFC CDK4 (P11802)” value ([2]; experiment wp045) was −0.9012, the “logFC CDK4 (P11802)” value ([2]; experiment wp103) was −0.5015 and the “logFC CDK4 (P11802)” value ([2]; experiment wp107) was −0.5565. For the same molecule, the “logFC CDK4 (P11802)” value ([2]; experiment wp117) was −0.6673, the “logFC CDK4 (P11802)” value ([2]; experiment wp152) was −0.736 and the “logFC CDK4 (P11802)” value ([2]; experiment wp160, 4 hr) was −0.7263. For the same molecule, the “logFC CDK4 (P11802)” value ([2]; experiment wp160, 8 hr) was −1.114, the “logFC of FER (P16591-1)” value ([3]; Experiment wp045) was −1.712 and the “logFC of FER (P16591-1)” value ([3]; Experiment wp103) was −1.628. For the same molecule, the “logFC of FER (P16591-1)” value ([3]; Experiment wp105) was −0.8737, the “logFC of FER (P16591-1)” value ([3]; Experiment wp107) was −1.722 and the “logFC of FER (P16591-1)” value ([3]; Experiment wp117) was −1.753. For the same molecule, the “logFC of FER (P16591-1)” value ([3]; Experiment wp160, 2 hr) was −0.5384, the “logFC of FER (P16591-1)” value ([3]; Experiment wp160, 4 hr) was −1.454 and the “logFC of FER (P16591-1)” value ([3]; Experiment wp160, 8 hr) was −1.737. For the same molecule, the “logFC of FER” value ([3]; FER P16591-1, experiment wp045) was −1.712, the “logFC of FER” value ([3]; FER P16591-1, experiment wp103) was −1.628 and the “logFC of FER” value ([3]; FER P16591-1, experiment wp105) was −0.8737. The “logFC of FER” value ([3]; FER P16591-1, experiment wp107) was −1.722, the “logFC of FER” value ([3]; FER P16591-1, experiment wp117) was −1.753 and the “logFC of FER” value ([3]; FER P16591-1, experiment wp160, 2 hr) was −0.5384. The “logFC of FER” value ([3]; FER P16591-1, experiment wp160, 4 hr) was −1.454, the “logFC of FER” value ([3]; FER P16591-1, experiment wp160, 8 hr) was −1.737 and the “logFC of FER” value ([3]; FER P16591, experiment wp152) was −1.698. For the same molecule, the “logFC of FER (P16591)” value ([3]; experiment wp152) was −1.698, the “logFC FYN” value ([4]; Accession P06241-2, experiment wp107) was −0.3999 and the “logFC FYN” value ([4]; Accession P06241-2, experiment wp160, 4 hr) was −0.3922. For the same molecule, the “logFC of SRC” value ([4]; experiment wp045) was −0.4152, the “logFC of SRC” value ([4]; experiment wp105) was −0.4412 and the “logFC of SRC” value ([4]; experiment wp107) was −0.4274. The “logFC of SRC” value ([4]; experiment wp117) was −0.3839, the logFC ([4]; CDK11B P21127-3, experiment wp103) was −0.3334 and the “logFC MAP3K20 (Q9NYL2-2)” value ([4]; Experiment wp045) was −1.182. For the same molecule, the “logFC MAPK8 (P45983-4)” value ([4]; Experiment wp045, direction down) was −0.9774, the “logFC MAP3K20 (Q9NYL2-2)” value ([4]; Experiment wp103) was −0.7004 and the “logFC of MAPK8 (P45983-2)” value ([4]; Experiment wp103) was −0.6109. The “logFC MAPK8 (P45983-2)” value ([4]; Experiment wp103, direction down) was −0.6109, the “logFC MAPK8 (P45983-3)” value ([4]; Experiment wp105, direction down) was −0.4094 and the “logFC MAP3K20 (Q9NYL2-2)” value ([4]; Experiment wp107) was −0.7825. For the same molecule, the “logFC of MAPK8 (P45983-2)” value ([4]; Experiment wp107) was −0.723, the “logFC MAPK8 (P45983-2)” value [4, 5] was −0.723 and the “logFC TNK2 (Q07912-3)” value [4, 5] was −0.8258. For the same molecule, the “logFC MAP3K20 (Q9NYL2-2)” value ([4]; Experiment wp114) was −0.8962, the “logFC MAP3K20 (Q9NYL2-2)” value ([4]; Experiment wp117) was −0.6701 and the “logFC of MAPK8 (P45983-2)” value ([4]; Experiment wp117) was −0.7835. For the same molecule, the “logFC MAPK8 (P45983-2)” value [4, 6] was −0.7835, the “logFC TNK2 (Q07912-3)” value [4, 6] was −0.9833 and the “logFC MAPK8 (P45983-3)” value ([4]; Experiment wp160, 4 hr, direction down) was −0.611. The “logFC MAPK8 (P45983-3)” value ([4]; Experiment wp160, 8 hr, direction down) was −1.01, the logFC ([4]; FER (P16591-3), experiment wp114, direction down) was −0.5921 and the logFC ([4]; FER (P16591-3), experiment wp172, direction down) was −1.014. The “logFC of FER” value ([4]; experiment wp114) was −0.5921, the “logFC of FER” value ([4]; experiment wp172) was −1.014 and the “logFC FYN” value ([4]; FYN P06241-2, experiment wp107) was −0.3999. For the same molecule, the “logFC FYN” value ([4]; FYN P06241-2, experiment wp160, 4 hr) was −0.3922, the logFC ([4]; GK P32189-3, experiment wp114) was −0.3632 and the “logFC LCK” value [4, 7] was −0.5631. For the same molecule, the “logFC LCK” value [4, 8] was −0.4496, the “logFC LCK” value [4, 9] was −0.3963 and the “logFC LCK” value [4, 10] was −0.4202. The logFC ([4]; LIMK2 (P53671-3), experiment wp105, direction down) was −0.7299, the “logFC of LIMK2” value ([4]; LIMK2 P53671-3, experiment wp105) was −0.7299 and the logFC ([4]; LYN (P07948-2), experiment wp105) was −0.985. For the same molecule, the “logFC MAPK8” value ([4]; MAPK8 P45983-4, experiment wp045) was −0.9774, the “logFC MAPK14” value ([4]; MAPK14, accession Q16539-2, experiment wp105, direction of change down) was −0.5822 and the “logFC MAPK14” value ([4]; MAPK14, accession Q16539-2, experiment wp117, direction of change down) was −0.6436. For the same molecule, the “logFC MAPK14” value ([4]; MAPK14, accession Q16539-2, experiment wp160, 4 hr, direction of change down) was −0.7051, the “logFC MAPK14” value ([4]; MAPK14, accession Q16539-2, experiment wp160, 8 hr, direction of change down) was −1.092 and the “logFC MAPK14” value ([4]; MAPK14 Q16539-2, experiment wp105) was −0.5822. For the same molecule, the “logFC MAPK14” value ([4]; MAPK14 Q16539-2, experiment wp117) was −0.6436, the “logFC MAPK14” value ([4]; MAPK14 Q16539-2, experiment wp160, 4 hr) was −0.7051 and the “logFC MAPK14” value ([4]; MAPK14 Q16539-2, experiment wp160, 8 hr) was −1.092. The “targets with significantly different degrader efficacy in the different cell lines with no obvious difference in protein expression” value ([4]; MOLT-4, KELLY, HEK293T) was “CSK, MAPK9”, the logFC ([4]; PTK2B (Q14289-2), experiment wp107, direction down) was −2.484 and the logFC ([4]; PTK2B (Q14289-2), experiment wp117, direction down) was −2.583. For the same molecule, the “logFC PTK2B” value [4, 9] was −2.484, the “logFC PTK2B” value [4, 10] was −2.583 and the logFC ([4]; SRC (P12931-2) protein abundance, degrader vs DMSO, down) was −0.4152 and −0.4412 and −0.4274 and −0.3839. The logFC ([4]; TAOK2 (Q9UL54-2), experiment wp160, 8 hr) was −0.5973, the logFC ([4]; TNK2 (Q07912-3), experiment wp107, direction down) was −0.8258 and the logFC ([4]; TNK2 (Q07912-3), experiment wp117, direction down) was −0.9833. For the same molecule, the “logFC MAP3K20 (Q9NYL2-2)” value ([4]; experiment wp045) was −1.182, the “logFC LCK (P06239-3)” value [4, 7] was −0.5631 and the “logFC MAP3K20 (Q9NYL2-2)” value ([4]; experiment wp103) was −0.7004. For the same molecule, the “logFC CDK11B (P21127-3)” value [4, 8] was −0.3334, the “logFC LCK (P06239-3)” value [4, 8] was −0.4496 and the “logFC of LYN (P07948-2)” value ([4]; experiment wp105) was −0.985. The “logFC of MAPK8 (P45983-3)” value ([4]; experiment wp105) was −0.4094, the “logFC MAP3K20 (Q9NYL2-2)” value ([4]; experiment wp107) was −0.7825 and the “logFC LCK (P06239-3)” value [4, 9] was −0.3963. For the same molecule, the “logFC MAP3K20 (Q9NYL2-2)” value ([4]; experiment wp114) was −0.8962, the “logFC MAP3K20 (Q9NYL2-2)” value ([4]; experiment wp117) was −0.6701 and the “logFC LCK (P06239-3)” value [4, 10] was −0.4202. The “logFC of MAPK8 (P45983-3)” value ([4]; experiment wp160, 4 hr) was −0.611, the “logFC of MAPK8 (P45983-3)” value ([4]; experiment wp160, 8 hr) was −1.01 and the “logFC TAOK2 (Q9UL54-2)” value ([4]; experiment wp160, 8 hr, direction of change down) was −0.5973. For the same molecule, the “Total no. kinase hits” value ([4]; number of degraded kinases per library compound) was 33.
